± gives the uncertainty stated by the source.
Assay: xn = mol fraction of the nth substance listed

COC(=O)c1ccccc1 + COc1ccccc1
viscosity [mPa·s], 100 kPa
Settings	x1 = 0.0898	x1 = 0.1468	x1 = 0.228	x1 = 0.3145	x1 = 0.4054	x1 = 0.5056	x1 = 0.6161	x1 = 0.7316	x1 = 0.8597
303.15 K	0.974 ± 0.04	1.038 ± 0.042	1.101 ± 0.045	1.187 ± 0.048	1.234 ± 0.05	1.307 ± 0.053	1.391 ± 0.056	1.48 ± 0.06	1.572 ± 0.064
308.15 K	0.894 ± 0.036	0.949 ± 0.039	1.007 ± 0.041	1.086 ± 0.044	1.129 ± 0.046	1.195 ± 0.049	1.272 ± 0.052	1.355 ± 0.055	1.439 ± 0.058
313.15 K	0.8 ± 0.033	0.85 ± 0.035	0.902 ± 0.037	0.972 ± 0.04	1.012 ± 0.041	1.074 ± 0.044	1.144 ± 0.047	1.22 ± 0.05	1.301 ± 0.053

COC(=O)c1ccccc1 + CS(C)=O
303.15 K, 101 kPa
Settings	viscosity [mPa·s]
x1 = 0.1946	1.757 ± 0.02
x1 = 0.2734	1.752 ± 0.02
x1 = 0.3608	1.751 ± 0.02
x1 = 0.4584	1.751 ± 0.02
x1 = 0.5683	1.723 ± 0.02
x1 = 0.6931	1.682 ± 0.019

C[N+](C)(C)C.[OH-] + CS(C)=O
viscosity [mPa·s], 100 kPa
Settings	298.15 K	303.15 K	308.15 K	313.15 K
x1 = 0.0177	2.05 ± 0.04	1.87 ± 0.04	1.73 ± 0.04	1.63 ± 0.04
x1 = 0.0538	2.18 ± 0.05	2.01 ± 0.04	1.87 ± 0.04	1.77 ± 0.04
x1 = 0.091	2.24 ± 0.05	2.07 ± 0.04	1.94 ± 0.04	1.86 ± 0.04
x1 = 0.1294	2.34 ± 0.05	2.18 ± 0.05	2.06 ± 0.04	1.98 ± 0.04
x1 = 0.1691	2.44 ± 0.05	2.3 ± 0.05	2.18 ± 0.05	2.1 ± 0.05
x1 = 0.2101	2.55 ± 0.05	2.42 ± 0.05	2.3 ± 0.05	2.23 ± 0.05
x1 = 0.2314	2.61 ± 0.06	2.48 ± 0.05	2.36 ± 0.05	2.3 ± 0.05
x1 = 0.2961	2.76 ± 0.06	2.64 ± 0.06	2.54 ± 0.05	2.48 ± 0.05
x1 = 0.3645	2.9 ± 0.06	2.81 ± 0.06	2.71 ± 0.06	2.65 ± 0.06
x1 = 0.4366	3.04 ± 0.06	2.94 ± 0.06	2.86 ± 0.06	2.81 ± 0.06
x1 = 0.4868	3.12 ± 0.07	3.03 ± 0.06	2.95 ± 0.06	2.91 ± 0.06
x1 = 0.5388	3.18 ± 0.07	3.1 ± 0.07	3.02 ± 0.06	2.98 ± 0.06
x1 = 0.6206	3.25 ± 0.07	3.17 ± 0.07	3.09 ± 0.07	3.07 ± 0.07
x1 = 0.7071	3.26 ± 0.07	3.2 ± 0.07	3.12 ± 0.07	3.1 ± 0.07
x1 = 0.7677	3.23 ± 0.07	3.18 ± 0.07	3.1 ± 0.07	3.06 ± 0.06
x1 = 0.8307	3.15 ± 0.07	3.12 ± 0.07	3.05 ± 0.06	3.02 ± 0.06
x1 = 0.8963	3.03 ± 0.06	3.02 ± 0.06	2.94 ± 0.06	2.9 ± 0.06
x1 = 0.9647	2.86 ± 0.06	2.84 ± 0.06	2.76 ± 0.06	2.71 ± 0.06

O=C(O)CC(=O)O + C[N+](C)(C)CCO.[Cl-]
viscosity [mPa·s]
Settings	293.15 K	293.2 K	298.15 K	303.15 K	303.2 K	308.15 K	313.15 K	313.2 K	318.15 K	323.15 K
100 kPa, x2 = 0.5	2016 ± 120	–	1389 ± 80	982.9 ± 54	–	710.7 ± 37	524.5 ± 26	–	393.9 ± 19	301.2 ± 14
101 kPa, x2 = 0.5	1651 ± 340	–	1084 ± 220	679.6 ± 140	–	486.4 ± 99	372.5 ± 75	–	286.5 ± 58	207.2 ± 42
101.3 kPa, x2 = 0.502	–	1600 ± 200	–	–	1029 ± 140	–	–	615 ± 80	–	–

CCOC(=O)CCl + Cc1cc(C)cc(C)c1
viscosity [mPa·s], 101.3 kPa
Settings	x1 = 0.1123	x1 = 0.2035	x1 = 0.2999	x1 = 0.4019	x1 = 0.4987	x1 = 0.5997	x1 = 0.6963	x1 = 0.7974	x1 = 0.8954
298.15 K	0.693 ± 0.007	0.712 ± 0.008	0.745 ± 0.008	0.775 ± 0.008	0.811 ± 0.008	0.853 ± 0.008	0.902 ± 0.009	0.964 ± 0.009	1.023 ± 0.009
303.15 K	0.653 ± 0.007	0.669 ± 0.007	0.698 ± 0.007	0.725 ± 0.008	0.759 ± 0.008	0.798 ± 0.008	0.841 ± 0.008	0.899 ± 0.009	0.949 ± 0.009
308.15 K	0.612 ± 0.007	0.627 ± 0.007	0.652 ± 0.007	0.677 ± 0.007	0.708 ± 0.008	0.741 ± 0.008	0.779 ± 0.008	0.829 ± 0.008	0.874 ± 0.008

CCCCOCCO + Cc1ccc(C)cc1
viscosity [mPa·s], 101 kPa
Settings	298.15 K	308.15 K
x1 = 0.0541	0.566 ± 0.01	0.647 ± 0.012
x1 = 0.1518	0.625 ± 0.011	0.725 ± 0.013
x1 = 0.2496	0.695 ± 0.012	0.817 ± 0.014
x1 = 0.3502	0.784 ± 0.014	0.933 ± 0.016
x1 = 0.451	0.894 ± 0.015	1.076 ± 0.018
x1 = 0.5028	0.961 ± 0.016	1.162 ± 0.019
x1 = 0.5533	1.033 ± 0.017	1.256 ± 0.021
x1 = 0.6489	1.194 ± 0.02	1.465 ± 0.024
x1 = 0.7493	1.404 ± 0.023	1.739 ± 0.028
x1 = 0.8519	1.676 ± 0.027	2.092 ± 0.033
x1 = 0.9561	2.029 ± 0.032	2.551 ± 0.039

CCOC(=O)CCl + Cc1ccc(C)cc1
viscosity [mPa·s], 101.3 kPa
Settings	x1 = 0.0994	x1 = 0.1995	x1 = 0.3008	x1 = 0.3992	x1 = 0.5001	x1 = 0.601	x1 = 0.6994	x1 = 0.7968	x1 = 0.8943
298.15 K	0.635 ± 0.007	0.663 ± 0.007	0.699 ± 0.007	0.735 ± 0.008	0.783 ± 0.008	0.832 ± 0.008	0.886 ± 0.008	0.949 ± 0.009	1.017 ± 0.009
303.15 K	0.599 ± 0.007	0.624 ± 0.007	0.656 ± 0.007	0.691 ± 0.007	0.734 ± 0.008	0.778 ± 0.008	0.827 ± 0.008	0.882 ± 0.008	0.945 ± 0.009
308.15 K	0.563 ± 0.007	0.586 ± 0.007	0.615 ± 0.007	0.646 ± 0.007	0.686 ± 0.007	0.726 ± 0.008	0.768 ± 0.008	0.816 ± 0.008	0.874 ± 0.008

CCCCOCCO + Cc1cccc(C)c1
viscosity [mPa·s], 101 kPa
Settings	298.15 K	308.15 K
x1 = 0.056	0.625 ± 0.011	0.534 ± 0.01
x1 = 0.152	0.711 ± 0.013	0.602 ± 0.011
x1 = 0.2496	0.813 ± 0.014	0.686 ± 0.012
x1 = 0.3506	0.941 ± 0.016	0.786 ± 0.014
x1 = 0.4512	1.095 ± 0.018	0.908 ± 0.016
x1 = 0.5022	1.185 ± 0.019	0.979 ± 0.017
x1 = 0.5529	1.284 ± 0.021	1.056 ± 0.018
x1 = 0.6487	1.501 ± 0.024	1.225 ± 0.02
x1 = 0.7505	1.781 ± 0.028	1.442 ± 0.023
x1 = 0.8511	2.122 ± 0.033	1.704 ± 0.027
x1 = 0.9549	2.56 ± 0.039	2.037 ± 0.032

— the CheMixHub viscosity set
